Reference: ChEMBL document CHEMBL1201862, “PubChem BioAssay data set” (2004)
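Interpolation was linear, between the two tested concentrations surrounding the appropriate level; five concentrations were tested over 48 hours in 96-well plates. At the GI50, growth is halved.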 Calls of active or inactive are those of the source. No stated cut-off is given here; in the data, active = GI50 up to about 1.1 µM and inactive = higher.

Tests used:
Assay in all cases: inhibition of tumour cell growth, NCI panel, 48 h
A549 = system: A549
ACHN = system: ACHN
CAKI-1 = system: CAKI-1
CCRF-CEM = system: CCRF-CEM
EKVX = system: EKVX
HCT-15 = system: HCT-15
HOP-62 = system: HOP-62
HOP-92 = system: HOP-92
MDA-N = system: MDA-N
NCI-H23 = system: NCI-H23
NCI-H522 = system: NCI-H522
OVCAR-8 = system: OVCAR-8
PC-3 = system: PC-3
RPMI-8226 = system: RPMI-8226
SK-MEL-2 = system: SK-MEL-2
SK-MEL-5 = system: SK-MEL-5
SK-OV-3 = system: SK-OV-3
SN12C = system: SN12C
T47D = system: T47D
TK-10 = system: TK-10

SMILES | GI50 (A549) | GI50 (ACHN) | GI50 (CAKI-1) | GI50 (CCRF-CEM) | GI50 (EKVX) | GI50 (HCT-15) [µM] | GI50 (HOP-62) | GI50 (HOP-92) | GI50 (MDA-N) | GI50 (NCI-H23) | GI50 (NCI-H522) | GI50 (OVCAR-8) | GI50 (PC-3) | GI50 (RPMI-8226) | GI50 (SK-MEL-2) | GI50 (SK-MEL-5) | GI50 (SK-OV-3) | GI50 (SN12C) | GI50 (T47D) | GI50 (TK-10)
C(=C\Nc1ccc(-c2ccccc2)cc1)/C=N/c1ccc(-c2ccccc2)cc1 | > 100 µM (inactive) | > 100 µM (inactive) | > 100 µM (inactive) | > 100 µM (inactive) | > 100 µM (inactive) | > 100 | > 100 µM (inactive) | > 100 µM (inactive) | > 100 µM (inactive) | > 100 µM (inactive) | > 100 µM (inactive) | > 100 µM (inactive) | > 100 µM (inactive) | > 100 µM (inactive) | > 100 µM (inactive) | > 100 µM (inactive) | > 100 µM (inactive) | > 100 µM (inactive) | > 100 µM (inactive) | 54.3 µM (inactive)
OCCSCc1ccccc1 | > 100 µM (inactive) | > 100 µM (inactive) | > 100 µM (inactive) | > 100 µM (inactive) | > 100 µM (inactive) | > 100 | > 100 µM (inactive) | > 100 µM (inactive) | > 100 µM (inactive) | > 100 µM (inactive) | > 100 µM (inactive) | > 100 µM (inactive) | > 100 µM (inactive) | > 100 µM (inactive) | > 100 µM (inactive) | > 100 µM (inactive) | > 100 µM (inactive) | > 100 µM (inactive) | > 100 µM (inactive) | > 100 µM (inactive)
C/C(CC(O)(C(F)(F)F)C(F)(F)F)=N\NC(N)=S | > 10 µM (inactive) | > 10 µM (inactive) | > 10 µM (inactive) | > 10 µM (inactive) | > 10 µM (inactive) | > 10 | > 10 µM (inactive) | > 10 µM (inactive) | > 10 µM (inactive) | > 10 µM (inactive) | > 10 µM (inactive) | > 10 µM (inactive) | > 10 µM (inactive) | > 10 µM (inactive) | > 10 µM (inactive) | > 10 µM (inactive) | > 10 µM (inactive) | > 10 µM (inactive) | > 10 µM (inactive) | > 10 µM (inactive)
COCOC1/C=C/CCCCC(=O)C(C)C#CC1 (stereo not given) | 12.9 µM (inactive) | 6.67 µM (inactive) | 5.09 µM (inactive) | 1.87 µM (inactive) | 9.86 µM (inactive) | 2.36 | 17.5 µM (inactive) | 3.1 µM (inactive) | 11.5 µM (inactive) | 4.63 µM (inactive) | 1.53 µM (inactive) | 4.18 µM (inactive) | 11.4 µM (inactive) | 1.46 µM (inactive) | 5.81 µM (inactive) | 8.87 µM (inactive) | 15.8 µM (inactive) | 6.27 µM (inactive) | 2.76 µM (inactive) | 8 µM (inactive)
CCOC(=O)NC(OCCN(C)C)(C(F)(F)F)C(F)(F)F | > 100 µM (inactive) | > 100 µM (inactive) | > 100 µM (inactive) | > 100 µM (inactive) | > 100 µM (inactive) | > 100 | > 100 µM (inactive) | > 100 µM (inactive) | > 100 µM (inactive) | > 100 µM (inactive) | > 100 µM (inactive) | > 100 µM (inactive) | > 100 µM (inactive) | > 100 µM (inactive) | > 100 µM (inactive) | > 100 µM (inactive) | > 100 µM (inactive) | > 100 µM (inactive) | > 100 µM (inactive) | > 100 µM (inactive)
CCCCCCCCCCCCCCCCCCNc1ccn(C2OC(CO)C(OP(=O)(O)OCC(COP(=O)(O)OCC3OC(n4cc(F)c(NCCCCCCCCCCCCCCCCCC)nc4=O)CC3O)OC(=O)CCCCCCCCCCCCCCC)C2O)c(=O)n1 (stereo not given) | > 100 µM (inactive) | > 100 µM (inactive) | > 100 µM (inactive) | 95.3 µM (inactive) | > 100 µM (inactive) | > 100 | > 100 µM (inactive) | > 100 µM (inactive) | > 100 µM (inactive) | > 100 µM (inactive) | > 100 µM (inactive) | > 100 µM (inactive) | > 100 µM (inactive) | > 100 µM (inactive) | > 100 µM (inactive) | > 100 µM (inactive) | > 100 µM (inactive) | > 100 µM (inactive) | > 100 µM (inactive) | > 100 µM (inactive)
CSc1c(C)[n+]([O-])c2cc(Cl)c(Cl)cc2[n+]1[O-] | > 100 µM (inactive) | 16.8 µM (inactive) | 18.2 µM (inactive) | 2.32 µM (inactive) | 16.3 µM (inactive) | 17 | 33.3 µM (inactive) | 16.2 µM (inactive) | 16 µM (inactive) | 16.2 µM (inactive) | 12.2 µM (inactive) | 16.6 µM (inactive) | 18.6 µM (inactive) | 9.73 µM (inactive) | 19.9 µM (inactive) | 17.7 µM (inactive) | > 100 µM (inactive) | 16.4 µM (inactive) | 20.8 µM (inactive) | 20.6 µM (inactive)
O=c1[nH]c2nc[nH]c2c(=O)n1C1CCCCC1 | > 100 µM (inactive) | > 100 µM (inactive) | > 100 µM (inactive) | > 100 µM (inactive) | > 100 µM (inactive) | > 100 | > 100 µM (inactive) | > 100 µM (inactive) | > 100 µM (inactive) | > 100 µM (inactive) | > 100 µM (inactive) | > 100 µM (inactive) | > 100 µM (inactive) | > 100 µM (inactive) | 72.9 µM (inactive) | > 100 µM (inactive) | > 100 µM (inactive) | > 100 µM (inactive) | > 100 µM (inactive) | > 100 µM (inactive)
CC(=O)C(=Cc1ccc(C=C(C(C)=O)C(C)=O)cc1)C(C)=O | 2.93 µM (inactive) | 1.76 µM (inactive) | 1.74 µM (inactive) | 0.193 µM (active) | 5.31 µM (inactive) | 0.977 | 2.08 µM (inactive) | 2.12 µM (inactive) | 2.22 µM (inactive) | 1.93 µM (inactive) | 1.37 µM (inactive) | 2.05 µM (inactive) | 1.9 µM (inactive) | 0.282 µM (active) | 2.39 µM (inactive) | 1.9 µM (inactive) | 6.07 µM (inactive) | 1.63 µM (inactive) | 3.05 µM (inactive) | 2.22 µM (inactive)
CCNc1cc2c3c(c1)CCN3CCC2 | > 10 µM (inactive) | > 10 µM (inactive) | > 10 µM (inactive) | 4.2 µM (inactive) | 5.86 µM (inactive) | > 10 | > 10 µM (inactive) | > 10 µM (inactive) | > 10 µM (inactive) | > 10 µM (inactive) | 5.98 µM (inactive) | 8.59 µM (inactive) | > 10 µM (inactive) | 3.51 µM (inactive) | > 10 µM (inactive) | > 10 µM (inactive) | > 10 µM (inactive) | > 10 µM (inactive) | 4.71 µM (inactive) | > 10 µM (inactive)
CC(C)OC(=S)Nc1ccc(Cl)c(/C=N/OC(C)(C)C)c1 | 16.9 µM (inactive) | 15.1 µM (inactive) | 15.1 µM (inactive) | 15.9 µM (inactive) | 15.4 µM (inactive) | 16.6 | 19.5 µM (inactive) | 12.2 µM (inactive) | 22.9 µM (inactive) | 18.5 µM (inactive) | 15.7 µM (inactive) | 12.3 µM (inactive) | 20.1 µM (inactive) | 18.1 µM (inactive) | 18.5 µM (inactive) | 16.2 µM (inactive) | 19.8 µM (inactive) | 16.7 µM (inactive) | 15.7 µM (inactive) | 12.4 µM (inactive)
C=C(C(=O)O[C@H]1C(=O)C2=C(C)CCC3C(=C)C(=O)O[C@@H]3C2[C@]1(C)O)C1CC[C@]2(C)CCCC(=C)[C@H]2C1 (stereo not given in full) | 8.89 µM (inactive) | 4.58 µM (inactive) | 8.71 µM (inactive) | < 0.01 µM (active) | 7.98 µM (inactive) | 3.48 | 8.32 µM (inactive) | 5.08 µM (inactive) | 2.71 µM (inactive) | 7.35 µM (inactive) | 3.53 µM (inactive) | 4.36 µM (inactive) | 5.45 µM (inactive) | 3.46 µM (inactive) | 8.45 µM (inactive) | 12.2 µM (inactive) | 16.9 µM (inactive) | 2.48 µM (inactive) | 4.25 µM (inactive) | 2.55 µM (inactive)
Cc1csc2c(P(=O)(OC(C)C)OC(C)C)c(-c3ccccc3)cn12 | 16.6 µM (inactive) | 15 µM (inactive) | 18.2 µM (inactive) | 16.7 µM (inactive) | 17.2 µM (inactive) | 15.9 | 18.2 µM (inactive) | 16.7 µM (inactive) | 17.9 µM (inactive) | 19.1 µM (inactive) | 15.3 µM (inactive) | 17.4 µM (inactive) | 14.8 µM (inactive) | 16.3 µM (inactive) | 16 µM (inactive) | 16.2 µM (inactive) | 18.5 µM (inactive) | 17.1 µM (inactive) | 3.84 µM (inactive) | 11.5 µM (inactive)
O=[N+]([O-])c1ccc(Oc2c(Cl)cc(S(=O)(=O)N/C(=N\O)Nc3ccc(Cl)cc3)cc2Cl)cc1 | 13.6 µM (inactive) | 11.6 µM (inactive) | 5.57 µM (inactive) | 8.22 µM (inactive) | 11.9 µM (inactive) | 11.2 | 15.2 µM (inactive) | 2.31 µM (inactive) | 12 µM (inactive) | 9.98 µM (inactive) | 3.15 µM (inactive) | 12.6 µM (inactive) | 10.4 µM (inactive) | 5.38 µM (inactive) | 10.9 µM (inactive) | 9.44 µM (inactive) | 15.7 µM (inactive) | 12.5 µM (inactive) | 7.98 µM (inactive) | 11.2 µM (inactive)
